# Key:
# human subjects [1] = assay: Safety and tolerability of orally delivered ebselen in the Phase 2 study; type: in vivo; conditions: oral 200, 400 or 600 mg twice daily for four days; CBC, Chemistry-20, Chest X-ray
# Protocol: (§1) A study was performed to evaluate the safety and efficacy of an orally delivered candidate composition in human subjects. The candidate composition ebselen (aka. SPI-1005) was evaluated for efficacy using the methods disclosed herein. Ebselen or placebo was administered in a randomized double-blinded study to subjects, who were then exposed to a calibrated sound or noise challenge. Post-sound exposure pure tone audiometry was compared with baseline (i.e., immediately pre-sound exposure) testing to determine group mean level hearing threshold shift changes between treated and placebo groups. The single center, randomized, double-blinded, placebo-controlled study enrolled 83 subjects, all between the ages of 18 and 31. All enrolled subjects ranged from having slight hearing loss (less than or equal to 25 dB HL) to normal hearing.
# Ebselen, or 2-phenyl-1,2-benzisoselenazol-3 (2H)-one, was selected as a candidate composition. […]
# Side effects of the ebselen delivery were analyzed. Clinical signs and symptoms from physical exam were evaluated, such as shortness of breath, wheezing, coughing, hemoptysis, resting pulse oximetry, chest X-rays, and laboratory findings such as hematology, chemistry, and urinalysis. Exposure to ebselen was quantified from plasma by LC-MS/MS. […]
# human subjects [2] = assay: Calibrated sound challenge: temporary threshold shift (TTS) by serial pure tone audiometry, randomized double-blinded placebo-controlled Phase 2 study; type: in vivo
# Protocol: as §1
# Each subject was instructed to avoid non-occupational sound exposure (e.g., concerts, firearms, fireworks, power tools) during the 24-hour period preceding baseline testing and throughout the duration of the study. Vital signs (i.e., heart rate, blood pressure, respirations, temperature) were within normal limits for each subject. Subjects had conventional audiologic assessments at baseline consisting of: (a) pure tone audiometry to confirm that subjects had symmetric hearing with air conduction thresholds no worse than 25 dB HL at frequencies between 0.25 to 8 kHz bilaterally, (b) no significant threshold asymmetry (i.e. greater than 15 dB) between any subject's ears at any tested frequency,(c) no significant air-bone gaps (i.e. greater than 10 dB). Bone conduction testing with masking as conducted at screening at 250, 500, 1000, 2000, or 4000 Hz if the air-conduction threshold was greater than 15 dB HL, and (d) Type A tympanograms bilaterally, defined as a range of −140 to +40 daPa based on the 90% range for adults. Subjects with pure tone audiometry hearing thresholds>25 dB HL at any tested frequency (250, 500, 1000, 2000, 3000, 4000, 6000, and 8000 Hz) for either ear were excluded from the study.
# Ebselen, or 2-phenyl-1,2-benzisoselenazol-3 (2H)-one, was selected as a candidate composition. The ebselen formulation was a capsule containing 200 mg of ebselen and 150 mg of the excipients microcrystalline cellulose, sodium croscarmellose, and magnesium sterate. Each subject received ebselen at one of three dosages (either 200 mg, 400 mg, or 600 mg) or received a placebo, delivered orally twice daily for four days, beginning two days prior to exposure to a controlled sound and continuing on the day of and on the day following the exposure to the controlled sound. The study was randomized to assign each subject to a treatment or placebo group. All subjects took 3 capsules in the morning (AM) and 3 capsules in the evening (PM) (each capsule either contained 200 mg ebselen or placebo), ideally 12 hours apart.
# On Day 3 of the ebselen treatment, subjects underwent audiometric testing immediately prior to sound-exposure to establish their baseline hearing levels. Subjects listened to a 100 dBA SPL sound exposure delivered via insert earphones from a Personal Music Player (PMP, specifically an iPod®) for 4 continuous hours. The sound exposure method was similar to that discussed in Le Prell, C. et al., Ear & Hearing 33:e44-e58, 2012, hereby incorporated by reference in its entirety. The music levels were measured using Bruel & Kjaer type 4157 artificial ear couplers. Subjects listened to sound from music playlists with a choice of rock or pop music. No changes in volume or duration of the sound exposure were permitted. At 15 minutes, 75 minutes, 135 minutes, 195 minutes, 24 hours, and 1 week after sound exposure, subjects were tested for pure tone audiometric thresholds. Serial pure tone audiometry determined the incidence (greater or equal to 10 dB HL), severity (dB HL) and duration (up to 1 week post sound exposure) of the TTS. Audiometric data was collected at 250, 500, 1000, 2000, 3000, 4000, 6000, and 8000 Hz. […]
smiles,measurement,setting,value
"O=c1c2ccccc2[se]n1-c1ccccc1 [ebselen, 2-phenyl-1,2-benzisoselenazol-3 (2H)-one]",Tolerability / drug-related adverse events,human subjects [1],well-tolerated with no drug-related adverse events
same,TTS at 4 kHz vs. placebo at later time points,"human subjects [2]; 1.25, 2.25 and 3.25 hours post sound exposure, 400 mg dose group, ITT",significantly reduced
same,TTS incidence (subjects with greater or equal to 10 dB HL shift in either ear),"human subjects [2]; 15 minutes post 100 dBA SPL 4 h sound exposure, oral twice daily for four days, 600 mg dose most effective, ITT, placebo 60%",20%
same,"TTS averaged across all tested frequencies, or mean across 3, 4, 6 kHz or 4, 6, 8 kHz","human subjects [2]; 15 minutes post sound exposure, 400 mg dose most effective, ITT",clinically relevant reductions
same,TTS severity at 4 kHz,"human subjects [2]; 15 minutes post sound exposure, oral twice daily for four days, 400 mg dose most effective, ITT, placebo 4.1",1.3 dB HL
same,Incidence of subjects that returned to baseline hearing within 24 hours,"human subjects [2]; all ebselen treatment groups compared with placebo, FIG. 2",greater incidence of subjects that returned to baseline hearing within 24 hours
same,TTS duration,"human subjects [2]; oral twice daily for four days, placebo 24 hrs",1.3 h
